Several values for one entry are separate records, joined by “and”; a condition that tells them apart may be missing. Equal entries are not always repeated.
Tested on: LXRα and/or LXRβ
Assay: LXR/LXRE co-transfection assay (luciferase reporter, CV-1 cells)
Assay type: cell-based, human
Conditions: IC50 or EC50 for LXR (LXRα and/or LXRβ, not distinguished), tested as described in Example 109, CV-1 cells
In short: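 Luciferase readout after 20 h compound exposure at 37 °C in CV-1 cells transiently expressing human LXRα or LXRβ with RXRα and an LXRE-driven reporter. Dose-response over 8 points at ½-log spacing, 4 wells each, fitted for EC50/IC50; values average ≥3 independent experiments, efficacy as % of high control.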

Structure (SMILES)	EC50
C/C(=N\O)c1cc(-c2ccc(-c3cccc(S(C)(=O)=O)c3)s2)n(-c2ccccc2Cl)n1 [Example 1176, (1E)-1-[1-(2-chlorophenyl)-5-{5-[3-(methylsulfonyl)phenyl]-2-thienyl}-1H-pyrazol-3-yl]ethanone oxime]	< 1 µM
CC(C)(O)c1cc(-c2ccc(-c3cccc(S(C)(=O)=O)c3)cc2)n(-c2ccccc2Cl)n1 [Example 1219, 2-{1-(2-chlorophenyl)-5-[3′-(methylsulfonyl)biphenyl-4-yl]-1H-pyrazole-3-yl}propan-2-ol]	< 1 µM
CC(C)(O)c1nn(-c2ccc(-c3cccc(S(C)(=O)=O)c3)cc2Cl)c(-c2ccccc2Cl)c1Cl [Example 1423, 2-(4-chloro-1-(3-chloro-3′-(methylsulfonyl)biphenyl-4-yl)-5-(2-chlorophenyl)-1H-pyrazol-3-yl)propan-2-ol]	< 1 µM
CS(=O)(=O)c1cccc(-c2ccc(-c3cc(C(F)(F)F)nn3-c3ccccc3Cl)cc2C(=O)O)c1 [Example 1139, 4-[1-(2-chlorophenyl)-3-(trifluoromethyl)-1H-pyrazol-5-yl]-3′-(methylsulfonyl)biphenyl-2-carboxylic acid]	1 to 10 µM and < 1 µM
CC(C)(O)c1cc(-c2ccc(-c3cccc(S(C)(=O)=O)c3)s2)n(-c2ccc(F)c(F)c2)n1 [Example 1267, 2-[1-(3,4-difluorophenyl)-5-{5-[3-(methylsulfonyl)phenyl]-2-thienyl}-1H-pyrazol-3-yl]propan-2-ol]	1 to 10 µM
CC(C)(O)c1nn(-c2ccc(-c3cccc(S(C)(=O)=O)c3)cc2)c(-c2ccccc2Cl)c1Cl [Example 110, 2-(4-chloro-5-(2-chlorophenyl)-1-(3′-(methylsulfonyl)biphenyl-4-yl)-1H-pyrazol-3-yl)propan-2-ol]	< 1 µM
CC(C)c1cccc(-c2ccc(-c3cc(C(C)(C)O)nn3-c3ccccc3Cl)s2)c1 [Example 1332, 2-[1-(2-chlorophenyl)-5-{5-[3-(1-methylethyl)phenyl]-2-thienyl}-1H-pyrazol-3-yl]propan-2-ol]	1 to 10 µM
CC(C)(O)c1cc(-c2ccc(-c3cccc(S(C)(=O)=O)c3)cc2)n(Cc2cccc(Cl)c2Cl)n1 [Example 1400, 2-(1-(2,3-dichlorobenzyl)-5-(3′-(methylsulfonyl)biphenyl-4-yl)-1H-pyrazol-3-yl)propan-2-ol]	< 1 µM
CC(C)(O)c1cc(-c2ccc(-c3cccc(S(C)(=O)=O)c3)s2)n(-c2ccccc2OC(F)(F)F)n1 [Example 1327, 2-(5-{5-[3-(methylsulfonyl)phenyl]-2-thienyl}-1-(2-[(trifluoromethyl)oxy]phenyl}-1H-pyrazol-3-yl)propan-2-ol]	< 1 µM
CC(C)(O)c1nn(-c2ccccc2C(F)(F)F)c(-c2ccc(-c3cccc(S(C)(=O)=O)c3)s2)c1Br [Example 1349, 2-(4-bromo-5-{5-[3-(methylsulfonyl)phenyl]-2-thienyl}-1-[2-(trifluoromethyl)phenyl]-1H-pyrazol-3-yl)propan-2-ol]	< 1 µM
Cc1cc(-c2cccc(S(C)(=O)=O)c2)cnc1-n1nc(C(C)(C)O)c(Cl)c1-c1ccccc1Cl [Example 145, 2-(4-chloro-5-(2-chlorophenyl)-1-(3-methyl-5-(3-(methylsulfonyl)phenyl)pyridin-2-yl)-1H-pyrazol-3-yl)propan-2-ol]	< 1 µM
CC(C)(O)c1nn(-c2ccccc2C(F)(F)F)c(-c2ccc(-c3cccc(S(C)(=O)=O)c3)s2)c1Cl [Example 1350, 2-(4-chloro-5-{5-[3-(methylsulfonyl)phenyl]-2-thienyl}-1-[2-(trifluoromethyl)phenyl]-1H-pyrazol-3-yl)propan-2-ol]	< 1 µM
Cn1ccc2cc(-c3ccc(-c4cc(C(C)(C)O)nn4-c4ccccc4Cl)cc3)ccc21 [Example 1284, 2-{1-(2-chlorophenyl)-5-[4-(1-methyl-1H-indol-5-yl)phenyl]-1H-pyrazol-3-yl}propan-2-ol]	1 to 10 µM
COC(F)(F)c1cc(-c2ccc(-c3cccc(S(C)(=O)=O)c3)s2)n(-c2ccccc2C(F)(F)F)n1 [Example 1211, 3-[difluoro(methyloxy)methyl]-5-{5-[3-(methylsulfonyl)phenyl]-2-thienyl}-1-[2-(trifluoromethyl)phenyl]-1H-pyrazole]	< 1 µM
CC(C)(O)c1cc(-c2ccc(C(=O)N3CCC3)cc2)n(-c2ccccc2Cl)n1 [Example 80]	> 10 µM
COC(=O)c1cc(-c2ccc(-c3cccc(S(C)(=O)=O)c3)s2)n(-c2ccccc2C(F)(F)F)n1 [Example 1156, methyl 5-{5-[3-(methylsulfonyl)phenyl]-2-thienyl}-1-[2-(trifluoromethyl)phenyl]-1H-pyrazole-3-carboxylate]	1 to 10 µM
CC(C)(O)c1cc(-c2ccc(-c3cccc(S(C)(=O)=O)c3)s2)n(-c2cccc(Cl)c2)n1 [Example 1256, 2-[1-(3-chlorophenyl)-5-{5-[3-(methylsulfonyl)phenyl]-2-thienyl}-1H-pyrazol-3-yl]propan-2-ol]	1 to 10 µM

Structure (SMILES)	EC50
Cc1ccc(C)c(-n2nc(C(C)(C)O)cc2-c2ccc(-c3cccc(S(C)(=O)=O)c3)s2)c1 [Example 1314, 2-[1-(2,5-dimethylphenyl)-5-{5-[3-(methylsulfonyl)phenyl]-2-thienyl}-1H-pyrazol-3-yl]propan-2-ol]	< 1 µM
CC(C)(O)c1cc(-c2ccccc2C(F)(F)F)n(-c2ccc(-c3cccc(S(C)(=O)=O)c3)cc2Cl)n1 [Example 140, 2-(1-(3-chloro-3′-(methylsulfonyl)biphenyl-4-yl)-5-(2-(trifluoromethyl)phenyl)-1H-pyrazol-3-yl)propan-2-ol]	< 1 µM
CC(O)(c1cc(-c2ccc(-c3cccc(S(C)(=O)=O)c3)s2)n(-c2ccccc2Cl)n1)C(F)(F)F (stereo not drawn) [Example 1182, 2-[1-(2-chlorophenyl)-5-{5-[3-(methylsulfonyl)phenyl]-2-thienyl}-1H-pyrazol-3-yl]-1,1,1-trifluoropropan-2-ol]	< 1 µM
CC(=O)c1cc(-c2ccccc2Cl)n(-c2ccc(-c3cccc(S(C)(=O)=O)c3)nc2)n1 [Example 1249, 1-[5-(2-chlorophenyl)-1-{6-[3-(methylsulfonyl)phenyl]pyridin-3-yl}-1H-pyrazol-3-yl]ethanone]	1 to 10 µM
CC(C)(O)c1nn(-c2cccc(F)c2Cl)c(-c2ccc(-c3cccc(S(C)(=O)=O)c3)s2)c1Cl [Example 1371, 2-[4-chloro-1-(2-chloro-3-fluorophenyl)-5-{5-[3-(methylsulfonyl)phenyl]-2-thienyl}-1H-pyrazol-3-yl]propan-2-ol]	< 1 µM
CC(C)(O)c1cc(-c2ccc(-c3cccc(S(C)(=O)=O)c3)s2)n(-c2c(Cl)cccc2Cl)n1 [Example 1239, 2-[1-(2,6-dichlorophenyl)-5-{5-[3-(methylsulfonyl)phenyl]-2-thienyl}-1H-pyrazol-3-yl]propan-2-ol]	< 1 µM
CC(C)(O)c1cc(-c2ccc(-c3cccc(OC(F)(F)F)c3)s2)n(-c2ccccc2Cl)n1 [Example 1274, 2-[1-(2-chlorophenyl)-5-(5-{3-[(trifluoromethyl)oxy]phenyl}-2-thienyl)-1H-pyrazol-3-yl]propan-2-ol]	1 to 10 µM
CC(C)(O)c1cc(-c2ccc(-c3cccc(S(C)(=O)=O)c3)s2)n(-c2cc(C(F)(F)F)ccc2Cl)n1 [Example 1347, 2-(1-[2-chloro-5-(trifluoromethyl)phenyl]-5-{5-[3-(methylsulfonyl)phenyl]-2-thienyl}-1H-pyrazol-3-yl)propan-2-ol]	1 to 10 µM
CS(=O)(=O)CCNC(=O)c1ccc(-c2cc(C(F)(F)F)nn2-c2ccccc2Cl)cc1 [Example 1364, 4-[1-(2-chlorophenyl)-3-(trifluoromethyl)-1H-pyrazol-5-yl]-N-[2-(methylsulfonyl)ethyl]benzamide]	1 to 10 µM
CN(CC(N)=O)C(=O)c1cc(-c2ccc(-c3cccc(S(C)(=O)=O)c3)s2)n(-c2ccccc2Cl)n1 [Example 724, N-(2-amino-2-oxoethyl)-1-(2-chlorophenyl)-N-methyl-5-{5-[3-(methylsulfonyl)phenyl]-2-thienyl}-1H-pyrazole-3-carboxamide]	1 to 10 µM
CS(=O)(=O)c1cccc(-c2ccc(-c3cc(C(F)(F)F)nn3CCN3CCOCC3)cc2)c1 [Example 1222, 4-(2-{5-[3′-(methylsulfonyl)phenyl-4-yl]-3-(trifluoromethyl)-1H-pyrazol-1-yl}ethyl)morpholine]	< 1 µM
COC(=O)c1cc(-c2cc(C(F)(F)F)nn2-c2ccccc2Cl)ccc1-c1cccc(S(C)(=O)=O)c1 [Example 1138, methyl 4-[1-(2-chlorophenyl)-3-(trifluoromethyl)-1H-pyrazol-5-yl]-3′-(methylsulfonyl)biphenyl-2-carboxylate]	1 to 10 µM
CC(C)S(=O)(=O)c1cccc(-c2ccc(-c3cc(C(F)(F)F)nn3-c3ccccc3Cl)cc2)c1 [Example 1167, 1-(2-chlorophenyl)-5-{3′-[(1-methylethyl)sulfonyl]biphenyl-4-yl}-3-(trifluoromethyl)-1H-pyrazole]	< 1 µM
CC(C)(O)c1cc(-c2ccc(-c3cccc(S(C)(=O)=O)c3)s2)n(-c2cc(Cl)cc(Cl)c2)n1 [Example 1323, 2-[1-(3,5-dichlorophenyl)-5-{5-[3-(methylsulfonyl)phenyl]-2-thienyl}-1H-pyrazol-3-yl]propan-2-ol]	1 to 10 µM
CC(C)(O)c1cc(-c2ccccc2Cl)n(-c2ccc(-c3cccc(S(C)(=O)=O)c3)cc2Cl)n1 [Example 114, 2-(1-(3-chloro-3′-(methylsulfonyl)biphenyl-4-yl)-5-(2-chlorophenyl)-1H-pyrazol-3-yl)propan-2-ol]	< 1 µM
CC(C)(O)c1cc(-c2ccc(-c3cccc(S(C)(=O)=O)c3)s2)n(-c2cccc(Cl)c2F)n1 [Example 1328, 2-[1-(3-chloro-2-fluorophenyl)-5-{5-[3-(methylsulfonyl)phenyl]-2-thienyl}-1H-pyrazol-3-yl]propan-2-ol]	< 1 µM

Source: US8703805B2 (Exelixis Patent Company LLC, priority 2005, dated 2014)
